Assay results reported in PubChem BioAssay (NCI).
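Results reflect a 48-hour exposure of cells in 96-well plates to compound at five concentrations. The concentration for 50% growth inhibition is given as GI50. At the TGI there is no net growth.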

Tests used:
Test in all cases: NCI anticancer screen, dose series, 48 h
ACHN renal = system: ACHN renal
CCRF-CEM leukemia = system: CCRF-CEM leukemia
DLD-1 colon = system: DLD-1 colon
DMS 273 small cell lung = system: DMS 273 small cell lung
K-562 leukemia = system: K-562 leukemia
NCI-H23 lung = system: NCI-H23 lung
OVCAR-3 ovarian = system: OVCAR-3 ovarian
OVCAR-4 ovarian = system: OVCAR-4 ovarian
PC-3 prostate = system: PC-3 prostate
SK-MEL-5 melanoma = system: SK-MEL-5 melanoma

**Q.** How did the TGI (ACHN renal) turn out when COc1ccc(Cc2cc(OC)c(OC)c(OC)c2)cc1 was run?
**A.** > 93.3 µM

**Q.** What about the TGI (CCRF-CEM leukemia) of the same compound?
**A.** 16.9 µM

**Q.** And the TGI (DLD-1 colon)?
**A.** > 100 µM

**Q.** What about the TGI (DMS 273 small cell lung) of the same compound?
**A.** > 100 µM

**Q.** And the TGI (K-562 leukemia)?
**A.** 22 µM

**Q.** And the TGI (NCI-H23 lung)?
**A.** 15.3 µM

**Q.** And the TGI (OVCAR-3 ovarian)?
**A.** 0.424 µM

**Q.** And the TGI (OVCAR-4 ovarian)?
**A.** > 100 µM

**Q.** And the TGI (PC-3 prostate)?
**A.** > 100 µM

**Q.** And the TGI (SK-MEL-5 melanoma)?
**A.** 21.2 µM

**Q.** How did the TGI (ACHN renal) turn out when CC12CC/C(=N/NC(N)=O)C3C1CCCC32 was run?
**A.** > 100 µM

**Q.** And the TGI (CCRF-CEM leukemia)?
**A.** > 100 µM

**Q.** What about the TGI (DLD-1 colon) of the same compound?
**A.** > 100 µM

**Q.** And the TGI (DMS 273 small cell lung)?
**A.** > 100 µM

**Q.** And the TGI (K-562 leukemia)?
**A.** > 100 µM

**Q.** And the TGI (NCI-H23 lung)?
**A.** > 100 µM

**Q.** And the TGI (OVCAR-3 ovarian)?
**A.** > 100 µM

**Q.** What about the TGI (OVCAR-4 ovarian) of the same compound?
**A.** > 100 µM

**Q.** And the TGI (SK-MEL-5 melanoma)?
**A.** > 100 µM

**Q.** How did the TGI (ACHN renal) turn out when CC12CCCC(C#N)(C1)OC2=O (centres undefined) was run?
**A.** > 100 µM

**Q.** And the TGI (CCRF-CEM leukemia)?
**A.** > 100 µM

**Q.** And the TGI (DLD-1 colon)?
**A.** > 100 µM

**Q.** And the TGI (DMS 273 small cell lung)?
**A.** > 100 µM

**Q.** What about the TGI (K-562 leukemia) of the same compound?
**A.** > 100 µM

**Q.** And the TGI (NCI-H23 lung)?
**A.** > 100 µM

**Q.** And the TGI (OVCAR-3 ovarian)?
**A.** > 100 µM

**Q.** And the TGI (OVCAR-4 ovarian)?
**A.** > 100 µM

**Q.** And the TGI (SK-MEL-5 melanoma)?
**A.** > 100 µM

**Q.** Which TGI (ACHN renal) does the source give for CCc1cccc(C)c1N1C(=O)C(=O)C(c2nc3ccccc3o2)/C(=N/NC(=S)NN)C1=O (centres undefined) here?
**A.** > 100 µM

**Q.** What about the TGI (CCRF-CEM leukemia) of the same compound?
**A.** > 100 µM

**Q.** And the TGI (DLD-1 colon)?
**A.** > 100 µM

**Q.** And the TGI (DMS 273 small cell lung)?
**A.** > 100 µM

**Q.** What about the TGI (K-562 leukemia) of the same compound?
**A.** > 100 µM

**Q.** And the TGI (NCI-H23 lung)?
**A.** > 100 µM

**Q.** What about the TGI (OVCAR-3 ovarian) of the same compound?
**A.** > 100 µM

**Q.** And the TGI (OVCAR-4 ovarian)?
**A.** > 100 µM

**Q.** And the TGI (SK-MEL-5 melanoma)?
**A.** > 100 µM

**Q.** Which TGI (ACHN renal) does the source give for O=C1C(Cl)=C(Cl)C(=O)N1c1ccccc1Cl here?
**A.** > 100 µM

**Q.** And the TGI (CCRF-CEM leukemia)?
**A.** 19.3 µM

**Q.** And the TGI (DLD-1 colon)?
**A.** > 94.7 µM

**Q.** What about the TGI (DMS 273 small cell lung) of the same compound?
**A.** > 100 µM

**Q.** And the TGI (K-562 leukemia)?
**A.** > 81 µM

**Q.** What about the TGI (NCI-H23 lung) of the same compound?
**A.** > 100 µM

**Q.** What about the TGI (OVCAR-3 ovarian) of the same compound?
**A.** > 100 µM

**Q.** What about the TGI (OVCAR-4 ovarian) of the same compound?
**A.** > 100 µM

**Q.** What about the TGI (SK-MEL-5 melanoma) of the same compound?
**A.** > 100 µM

**Q.** O=C(O)CCC(=O)Oc1ccc(O)c2c1CCCC2=O was tested. Which TGI (ACHN renal) did it give?
**A.** > 100 µM

**Q.** And the TGI (CCRF-CEM leukemia)?
**A.** > 100 µM

**Q.** And the TGI (DLD-1 colon)?
**A.** > 100 µM

**Q.** What about the TGI (DMS 273 small cell lung) of the same compound?
**A.** > 100 µM

**Q.** What about the TGI (K-562 leukemia) of the same compound?
**A.** > 100 µM

**Q.** What about the TGI (NCI-H23 lung) of the same compound?
**A.** > 100 µM

**Q.** What about the TGI (OVCAR-3 ovarian) of the same compound?
**A.** > 100 µM

**Q.** What about the TGI (OVCAR-4 ovarian) of the same compound?
**A.** > 100 µM

**Q.** And the TGI (SK-MEL-5 melanoma)?
**A.** > 100 µM

**Q.** Which results are given for CN1C(c2ccccc2)CC(C)(O)CC1c1ccccc1 (centres undefined)?
**A.** TGI (ACHN renal): > 100 µM; TGI (CCRF-CEM leukemia): > 100 µM; TGI (DLD-1 colon): > 100 µM; TGI (DMS 273 small cell lung): > 100 µM; TGI (K-562 leukemia): > 100 µM; TGI (NCI-H23 lung): > 100 µM; TGI (OVCAR-3 ovarian): > 100 µM; TGI (OVCAR-4 ovarian): > 100 µM; TGI (SK-MEL-5 melanoma): > 100 µM

**Q.** Which results are given for N#CC(C(=O)/C(=N/NC(=O)c1ccccc1O)C(C#N)c1ccc(Br)cc1)c1ccc(Br)cc1 (centres undefined)?
**A.** TGI (ACHN renal): 26.7 µM; TGI (CCRF-CEM leukemia): 76.4 µM; TGI (DLD-1 colon): 25.6 µM; TGI (DMS 273 small cell lung): 26.8 µM; TGI (K-562 leukemia): > 100 µM; TGI (NCI-H23 lung): 16.4 µM; TGI (OVCAR-3 ovarian): 26.4 µM; TGI (OVCAR-4 ovarian): 29.4 µM; TGI (SK-MEL-5 melanoma): 21.5 µM

**Q.** With N.N.N.N.N.N#Cc1nn[n-]n1.[Cl-].[Co+3] as the compound, how does the GI50 (ACHN renal) read?
**A.** > 100 µM

**Q.** What about the TGI (ACHN renal) of the same compound?
**A.** > 100 µM

**Q.** What about the GI50 (CCRF-CEM leukemia) of the same compound?
**A.** > 100 µM

**Q.** And the TGI (CCRF-CEM leukemia)?
**A.** > 100 µM

**Q.** What about the GI50 (DLD-1 colon) of the same compound?
**A.** > 100 µM

**Q.** What about the TGI (DLD-1 colon) of the same compound?
**A.** > 100 µM

**Q.** What about the GI50 (DMS 273 small cell lung) of the same compound?
**A.** > 100 µM

**Q.** What about the TGI (DMS 273 small cell lung) of the same compound?
**A.** > 100 µM

**Q.** What about the GI50 (K-562 leukemia) of the same compound?
**A.** > 100 µM

**Q.** And the TGI (K-562 leukemia)?
**A.** > 100 µM

**Q.** What about the GI50 (NCI-H23 lung) of the same compound?
**A.** > 100 µM

**Q.** What about the TGI (NCI-H23 lung) of the same compound?
**A.** > 100 µM

**Q.** What about the GI50 (OVCAR-3 ovarian) of the same compound?
**A.** > 100 µM

**Q.** What about the TGI (OVCAR-3 ovarian) of the same compound?
**A.** > 100 µM

**Q.** What about the GI50 (OVCAR-4 ovarian) of the same compound?
**A.** > 100 µM

**Q.** And the TGI (OVCAR-4 ovarian)?
**A.** > 100 µM

**Q.** What about the GI50 (SK-MEL-5 melanoma) of the same compound?
**A.** > 100 µM

**Q.** What about the TGI (SK-MEL-5 melanoma) of the same compound?
**A.** > 100 µM

**Q.** For CCC(C)C(=O)O[C@H]1C(=O)O[C@@H]2C[C@H]3C(C)=CC(=O)[C@@H](O)[C@]3(C)[C@H]3[C@@H](O)[C@H](O)[C@@]4(C)OC[C@]32[C@@H]14 (some centres undefined), which TGI (ACHN renal) is on record?
**A.** 0.566 µM

**Q.** And the TGI (DLD-1 colon)?
**A.** 0.317 µM

**Q.** And the TGI (DMS 273 small cell lung)?
**A.** 0.0468 µM

**Q.** What about the TGI (K-562 leukemia) of the same compound?
**A.** 0.214 µM

**Q.** And the TGI (NCI-H23 lung)?
**A.** < 0.01 µM

**Q.** And the TGI (OVCAR-3 ovarian)?
**A.** 0.0906 µM

**Q.** What about the TGI (OVCAR-4 ovarian) of the same compound?
**A.** < 0.01 µM

**Q.** What about the TGI (PC-3 prostate) of the same compound?
**A.** 0.0143 µM

**Q.** What about the TGI (SK-MEL-5 melanoma) of the same compound?
**A.** < 0.0338 µM

**Q.** What does the source list for N#CCCN(C1=NN(C(=O)CC(=O)Nc2ccc(Cl)cc2)C(c2ccccc2)C1)c1ccc(Cl)cc1 (centres undefined)?
**A.** TGI (ACHN renal): > 100 µM; TGI (CCRF-CEM leukemia): > 100 µM; TGI (DLD-1 colon): > 100 µM; TGI (DMS 273 small cell lung): > 100 µM; TGI (K-562 leukemia): > 100 µM; TGI (NCI-H23 lung): > 100 µM; TGI (OVCAR-3 ovarian): > 100 µM; TGI (OVCAR-4 ovarian): > 100 µM; TGI (SK-MEL-5 melanoma): > 100 µM
